Assay [1] concerns HAUSP/USP7. The assay can be described thus: Binding of HAUSP/USP7 to ubiquitin-VME. The settings on record: Ub-VME 2 μM, USP7 1 μM, 60 min at 30° C. On the procedure: Both Ub derivatives are routinely used to measure activity of deubiquitinating enzymes (DUBs). […] The structural integrity of synthetic UbAMC and UBRh110Gly, both prepared in accordance with the method of the present invention, was tested using the following assays.
Binding of HAUSP/USP7 to ubiquitin-VME Assay buffer: 20 mM HEPES pH7.5 • 150 mM NaCl • 2 μM ZnCl2 • 10 mM MgCl2 • 2 mM DTT
Reaction mixtures were incubated for 60 min at 30° C.
Load 10 μL on gel (complete sample)
Target sequence in this assay (Q93009 206-1102): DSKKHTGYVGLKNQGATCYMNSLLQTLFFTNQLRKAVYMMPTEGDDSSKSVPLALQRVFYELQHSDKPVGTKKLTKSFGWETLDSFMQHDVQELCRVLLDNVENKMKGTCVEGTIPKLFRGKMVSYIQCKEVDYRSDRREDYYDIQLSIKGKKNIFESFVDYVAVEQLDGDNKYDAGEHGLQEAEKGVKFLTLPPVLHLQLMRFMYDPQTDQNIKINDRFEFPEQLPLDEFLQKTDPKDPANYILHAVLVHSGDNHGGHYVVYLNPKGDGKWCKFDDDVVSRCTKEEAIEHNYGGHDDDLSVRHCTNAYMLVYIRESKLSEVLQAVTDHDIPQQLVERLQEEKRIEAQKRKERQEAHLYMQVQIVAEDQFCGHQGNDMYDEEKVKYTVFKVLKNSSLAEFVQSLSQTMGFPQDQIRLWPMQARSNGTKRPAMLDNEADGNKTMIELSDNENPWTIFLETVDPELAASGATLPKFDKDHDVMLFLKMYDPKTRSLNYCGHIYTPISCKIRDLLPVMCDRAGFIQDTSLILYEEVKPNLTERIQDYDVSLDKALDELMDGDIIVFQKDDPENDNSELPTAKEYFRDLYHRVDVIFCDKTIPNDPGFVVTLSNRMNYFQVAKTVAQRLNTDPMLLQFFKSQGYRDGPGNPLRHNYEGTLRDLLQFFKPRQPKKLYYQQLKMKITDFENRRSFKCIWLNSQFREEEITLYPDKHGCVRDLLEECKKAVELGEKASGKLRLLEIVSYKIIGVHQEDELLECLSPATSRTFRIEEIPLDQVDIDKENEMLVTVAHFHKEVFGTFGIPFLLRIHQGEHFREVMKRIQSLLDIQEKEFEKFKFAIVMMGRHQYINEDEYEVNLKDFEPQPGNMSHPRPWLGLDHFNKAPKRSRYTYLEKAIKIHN

The target in the next assay is T1, UCH-L3 (Homo sapiens, UniProt P15374).
T1 construct: made in house; host or cells: Escherichia coli
T1 sequence (P15374 1-230): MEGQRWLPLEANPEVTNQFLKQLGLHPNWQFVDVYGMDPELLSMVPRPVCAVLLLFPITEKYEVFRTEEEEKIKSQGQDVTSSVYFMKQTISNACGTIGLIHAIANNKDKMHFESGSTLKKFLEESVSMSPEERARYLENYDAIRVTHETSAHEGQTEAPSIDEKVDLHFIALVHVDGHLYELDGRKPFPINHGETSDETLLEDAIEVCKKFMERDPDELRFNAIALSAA
The assay is described as follows: Ub-AMC/Ub-Rh110-Gly DUB assay with UCH-L3. Type of assay: biochemical. The settings on record: 1 nM enzyme, substrate 0.06-15 μM, 25° C., 30 min. On the procedure: (§1) FIG. 5: Hydrolysis of fluorogenic Ub derivatives by the deubiquitinating enzymes HAUSP/USP7 and UCH-L3. All assays contained 1 nM of enzyme, substrate concentration was varied.
Assay 2. Synthetic Ub-AMC was treated with UCH-L3.
(§2) Assay 3: Ub-Rh110-Gly was treated with HAUSP/USP7 and UCH-L3.
UCH-L3 in pRSET vector was obtained from Dr. Keith Wilkinson. UCH-L3 was expressed in Escherichia coli and purified as described in: C. N. Larsen, J. S. Price, K. D. Wilkinson, K. D. Biochemistry 1996, 35, 6735-6744.
(§3) assay buffer: 50 mM HEPES pH 7.5 • 100 mM NaCl • 1 mM EDTA • 0.05% Tween20 • 10 mM DTT • Reaction mixtures were incubated for 30 min at 25° C., measured every 5 minutes • 30 μL reactions • Proteins used: Ub-AMC (Commercial) • Ub-AMC (Synthetic) • Ub-Rh110-Gly (Synthetic) • USP7 full length • UCH-L3 All assays contained 1 nM DUB and the following concentrations of Ub:
DUB activity on commercial (Sigma) and synthetic ubiquitin with a C-terminal fluorescent group, 7-amino-4-methylcoumarin (Ub-AMC) were performed at 25° C. in buffer containing 50 mM Hepes pH 7.5, 100 mM NaCl, 1 mM EDTA, 0.05% (w/v) Tween20, 10 mM DTT. The concentrations Ubiquitin-AMC and DUB are specified in the figures. […] Kinetic data was collected in intervals of 5 min using a Fluostar Optima fluorescence plate reader (BMG Labtechnologies) at excitation and emission wavelengths of 355 nm and 460 nm, respectively for Ub-AMC. […]

Assay [2] relates to HAUSP/USP7. The assay is described as follows: Ub-AMC/Ub-Rh110-Gly DUB assay with HAUSP/USP7. The settings on record: 1 nM enzyme. The class given is biochemical. As to the method:
as §1
Target sequence in this assay (Q93009 whole entry): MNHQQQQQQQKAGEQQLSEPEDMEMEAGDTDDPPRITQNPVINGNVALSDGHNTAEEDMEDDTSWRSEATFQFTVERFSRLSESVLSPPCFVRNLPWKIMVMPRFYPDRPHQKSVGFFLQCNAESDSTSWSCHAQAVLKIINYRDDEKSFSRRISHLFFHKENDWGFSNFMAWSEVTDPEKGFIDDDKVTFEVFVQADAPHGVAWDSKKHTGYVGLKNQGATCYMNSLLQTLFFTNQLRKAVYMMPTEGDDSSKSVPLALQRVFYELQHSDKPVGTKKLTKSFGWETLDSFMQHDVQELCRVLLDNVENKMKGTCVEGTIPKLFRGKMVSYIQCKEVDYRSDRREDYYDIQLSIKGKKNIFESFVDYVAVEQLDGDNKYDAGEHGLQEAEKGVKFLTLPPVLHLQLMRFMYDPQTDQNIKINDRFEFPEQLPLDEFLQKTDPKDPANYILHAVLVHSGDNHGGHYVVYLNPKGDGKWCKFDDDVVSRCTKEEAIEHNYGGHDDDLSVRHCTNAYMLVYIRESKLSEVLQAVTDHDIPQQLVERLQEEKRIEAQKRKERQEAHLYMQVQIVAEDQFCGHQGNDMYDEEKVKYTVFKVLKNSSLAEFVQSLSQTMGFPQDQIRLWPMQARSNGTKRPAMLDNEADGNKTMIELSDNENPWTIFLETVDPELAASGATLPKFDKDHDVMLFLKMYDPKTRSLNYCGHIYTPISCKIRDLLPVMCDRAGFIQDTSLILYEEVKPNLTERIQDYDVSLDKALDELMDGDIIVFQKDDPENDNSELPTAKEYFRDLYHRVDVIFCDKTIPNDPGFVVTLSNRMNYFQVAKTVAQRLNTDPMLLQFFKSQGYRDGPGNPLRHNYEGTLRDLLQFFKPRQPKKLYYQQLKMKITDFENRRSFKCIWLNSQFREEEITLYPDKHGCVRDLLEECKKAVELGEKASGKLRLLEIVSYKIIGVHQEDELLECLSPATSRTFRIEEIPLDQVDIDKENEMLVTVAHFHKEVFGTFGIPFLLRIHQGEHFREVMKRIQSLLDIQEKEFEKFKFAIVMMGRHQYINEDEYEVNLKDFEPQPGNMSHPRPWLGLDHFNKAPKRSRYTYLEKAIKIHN
Assay 1: Commercial and synthetic Ub-AMC, prepared according to the present method are treated side by side with HAUSP/USP7 and compared.
as §2
Usp7(206-1102) was expressed in E. coli from a synthetic construct and purified as described: (a) Shanmugham et al. J. Am. Chem. Soc. 2010, 132, 8834-8835; (b) Fernandez-Montalvan et al. Febs J. 2007, 274, […].
as §3
DUB activity on commercial (Sigma) and synthetic ubiquitin with a C-terminal fluorescent group, 7-amino-4-methylcoumarin (Ub-AMC) were performed at 25° C. in buffer containing 50 mM Hepes pH 7.5, 100 mM NaCl, 1 mM EDTA, 0.05% (w/v) Tween20, 10 mM DTT. The concentrations Ubiquitin-AMC and DUB are specified in the figures. Assays were performed in “Non binding surface flat bottom low flange” black 384-well plates (Corning) in 30 μl reactions. Kinetic data was collected in intervals of 5 min using a Fluostar Optima fluorescence plate reader (BMG Labtechnologies) at excitation and emission wavelengths of 355 nm and 460 nm, respectively for Ub-AMC. Experimental data was processed using Prism 4.03 (GraphPad Software, Inc.).

Turning to “UbVME: active site directed probe Ub vinylmethyl ester which covalently modifies DUBs”, the “reaction of active-site targeted probe with HAUSP/USP7” value with HAUSP/USP7 [1] is listed as “reacted swiftly as expected”.
Take “synthetic UbAMC: synthetic ubiquitin with a C-terminal fluorescent group, 7-amino-4-methylcoumarin; fluorogenic assay reagent”: the “hydrolysis / turnover by UCH-L3 (recognition as substrate)” value with UCH-L3 is “efficient turnover”; with UCH-L3 (listed as synthetic Ub-AMC) it was “hydrolyzed and thus recognized as a substrate”. Also, the “hydrolysis / turnover by HAUSP/USP7 (recognition as substrate)” value in the assay with HAUSP/USP7 [2] (substrate 0.06-15 μM, 25° C., 30 min) is “efficient turnover”. Also, in the assay with HAUSP/USP7 [2] (substrate concentration varied, commercial versus synthetic UbAMC (FIG. 5C)), the “Michaelis-Menten kinetics comparison with USP7” value was “identical kinetics”. In the assay on HAUSP/USP7 [2] (substrate concentration varied, synthetic versus commercial UbAMC), the “Km values with HAUSP/USP7” value is “comparable Km values”.

The values are drawn from US20130267680A1, “TOTAL CHEMICAL SYNTHESIS OF UBIQUITIN, UBIQUITIN MUTANTS AND DERIVATIVES THEREOF” (Stichting Het Nederlands kankerinstituut, priority 2010, published 2013).
